Results on 1 compound are retold here after the NIST ThermoML archive (doi:10.1021/acs.jced.9b00406).

Each structure is given as a SMILES string. Numbers after ± are expanded uncertainties.

Series [1] is described as follows: Molar enthalpy of transition or fusion. The conditions noted are these: Crystal; DSC.
The conditions of series [2]: Crystal; DSC.

Turning to `Cc1cnc(C(=O)O)cn1` [2-methylpyrazine-5-carboxylic acid], the “Molar enthalpy of transition or fusion” value in series [1] was 6.84 ± 0.237 kcal/mol. In series [2], the Triple point temperature worked out at 440.35 ± 1.2 K.
